Measured values as given in publication PMC7253076 (Cell chemical biology, 2019).

Tested on: human stem-cell-derived motor neurons carrying the ALS-causing SOD1^A4V mutation
Assay: Motor neuron CPA survival assay, SOD1^A4V ALS motor neurons
Settings: for maximum efficacy compared with compound 1 / neuroprotection in CPA survival assay: CPA-treated SOD1^A4V motor neurons; for EC50: Homo sapiens, Neuron, 72 h, read-out: EC50 in motor neuron survival assay

Structure (SMILES) | maximum efficacy compared with compound 1 | EC50 | neuroprotection in CPA survival assay
CN1CCN(Cc2ccc(-c3cnc4[nH]cc(-c5cccc6[nH]ncc56)c4c3)cc2)CC1 [7aa, 4-(5-(4-((4-Methylpiperazin-1-yl)methyl)phenyl)-1H-pyrrolo[2,3-b]pyridin-3-yl)-1H-indazole] | greater maximum efficacy than compound 1 | < 220 nM | –
CN1CCN(Cc2ccc(-c3cnc4[nH]cc(-c5ccccc5)c4c3)cc2)CC1 [7ac, 5-(4-((4-Methylpiperazin-1-yl)methyl)phenyl)-3-phenyl-1H-pyrrolo[2,3-b]pyridine] | greater maximum efficacy than compound 1 | – | –
CNC(=O)Nc1cccc(-c2c[nH]c3ncc(-c4ccc(CN5CCN(C)CC5)cc4)cc23)c1 [7ak, 1-Methyl-3-(3-(5-(4-((4-methylpiperazin-1-yl)methyl)phenyl)-1H-pyrrolo[2,3-b]pyridin-3-yl)phenyl)urea] | greater maximum efficacy than compound 1 | – | –
COC(=O)Nc1cccc(-c2c[nH]c3ncc(-c4ccc(CN5CCN(C)CC5)cc4)cc23)c1 [7al, Methyl (3-(5-(4-((4-methylpiperazin-1-yl)methyl)phenyl)-1H-pyrrolo[2,3-b]pyridin-3-yl)phenyl)carbamate] | greater maximum efficacy than compound 1 | – | –
CNC(=O)Nc1ccc(-c2c[nH]c3ncc(-c4ccc(CN5CCN(C)CC5)cc4)cc23)cc1 [7am, 1-Methyl-3-(4-(5-(4-((4-methylpiperazin-1-yl)methyl)phenyl)-1H-pyrrolo[2,3-b]pyridin-3-yl)phenyl)urea] | greater maximum efficacy than compound 1 | – | –
CN1CCN(Cc2ccc(-c3cnc4[nH]cc(-c5cccc(NC(=O)NCc6ccco6)c5)c4c3)cc2)CC1 [7ay, 1-(Furan-2-ylmethyl)-3-(3-(5-(4-((4-methylpiperazin-1-yl)methyl)phenyl)-1H-pyrrolo[2,3-b]pyridin-3-yl)phenyl)urea] | – | – | completely ineffective
CN1CCN(Cc2ccc(-c3cnc4[nH]cc(-c5cccc6c5oc5ccccc56)c4c3)cc2)CC1 [7c, 3-(Dibenzo[b,d]furan-4-yl)-5-(4-((4-methylpiperazin-1-yl)methyl)phenyl)-1H-pyrrolo[2,3-b]pyridine] | – | – | completely ineffective
CN1CCN(Cc2ccc(-c3cnc4[nH]cc(-c5ccc(N)cc5)c4c3)cc2)CC1 [7e, 4-(5-(4-((4-Methylpiperazin-1-yl)methyl)phenyl)-1H-pyrrolo[2,3-b]pyridin-3-yl)aniline] | greater maximum efficacy than compound 1 | – | –
CN1CCN(Cc2ccc(-c3cnc4[nH]cc(-c5cccc(N)c5)c4c3)cc2)CC1 [7h, 3-(5-(4-((4-Methylpiperazin-1-yl)methyl)phenyl)-1H-pyrrolo[2,3-b]pyridin-3-yl)aniline] | greater maximum efficacy than compound 1 | < 220 nM | –
Cc1cc(-c2c[nH]c3ncc(-c4ccc(CN5CCN(C)CC5)cc4)cc23)cnc1N [7l, 3-Methyl-5-(5-(4-((4-methylpiperazin-1-yl)methyl)phenyl)-1H-pyrrolo[2,3-b]pyridin-3-yl)pyridin-2-amine] | greater maximum efficacy than compound 1 | < 220 nM | –
CN1CCN(Cc2ccc(-c3cnc4[nH]cc(-c5ccc(N)nc5)c4c3)cc2)CC1 [7m, 5-(5-(4-((4-Methylpiperazin-1-yl)methyl)phenyl)-1H-pyrrolo[2,3-b]pyridin-3-yl)pyridin-2-amine] | – | < 220 nM | –
CN1CCN(Cc2ccc(-c3cnc4[nH]cc(-c5cccc([N+](=O)[O-])c5)c4c3)cc2)CC1 [7p, 5-(4-((4-Methylpiperazin-1-yl)methyl)phenyl)-3-(3-nitrophenyl)-1H-pyrrolo[2,3-b]pyridine] | greater maximum efficacy than compound 1 | – | –
CN1CCN(Cc2ccc(-c3cnc4[nH]cc(-c5ccc6[nH]ncc6c5)c4c3)cc2)CC1 [7v, 5-(5-(4-((4-Methylpiperazin-1-yl)methyl)phenyl)-1H-pyrrolo[2,3-b]pyridin-3-yl)-1H-indazole] | greater maximum efficacy than compound 1 | < 220 nM | –
